The values that follow come from ChEMBL document CHEMBL1153934, “Quantitative structure-activity relationship (QSAR) for a series of novel cannabinoid derivatives using descriptors derived from semi-empirical quantum-chemical calculations” (Bioorg Med Chem, 2009).

Test [1] addresses Cannabinoid receptor 1 (Homo sapiens, UniProt P21554). The test is described as follows: Binding affinity to CB1 receptor.
In test [2] the target is Cannabinoid receptor 2 (Homo sapiens, UniProt P34972). The experiment in a line: Binding affinity to CB2 receptor.
Cannabinoid receptor 2, sequence (P34972 whole entry): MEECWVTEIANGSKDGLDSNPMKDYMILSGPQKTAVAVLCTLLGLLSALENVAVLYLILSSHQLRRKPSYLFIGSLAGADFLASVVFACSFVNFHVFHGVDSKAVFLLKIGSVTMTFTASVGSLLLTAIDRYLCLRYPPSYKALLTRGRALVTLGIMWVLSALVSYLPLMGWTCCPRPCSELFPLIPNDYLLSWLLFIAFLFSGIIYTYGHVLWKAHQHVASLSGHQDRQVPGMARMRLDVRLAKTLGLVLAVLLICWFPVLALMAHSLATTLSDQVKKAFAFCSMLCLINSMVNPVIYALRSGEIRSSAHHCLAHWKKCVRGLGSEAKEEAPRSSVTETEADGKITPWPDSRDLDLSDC

The term Ki denotes the dissociation constant of the complex between target and ligand, obtained from inhibition or displacement. Read a high Ki as weaker binding.

Cannabinoid receptor 1, sequence (P21554 whole entry): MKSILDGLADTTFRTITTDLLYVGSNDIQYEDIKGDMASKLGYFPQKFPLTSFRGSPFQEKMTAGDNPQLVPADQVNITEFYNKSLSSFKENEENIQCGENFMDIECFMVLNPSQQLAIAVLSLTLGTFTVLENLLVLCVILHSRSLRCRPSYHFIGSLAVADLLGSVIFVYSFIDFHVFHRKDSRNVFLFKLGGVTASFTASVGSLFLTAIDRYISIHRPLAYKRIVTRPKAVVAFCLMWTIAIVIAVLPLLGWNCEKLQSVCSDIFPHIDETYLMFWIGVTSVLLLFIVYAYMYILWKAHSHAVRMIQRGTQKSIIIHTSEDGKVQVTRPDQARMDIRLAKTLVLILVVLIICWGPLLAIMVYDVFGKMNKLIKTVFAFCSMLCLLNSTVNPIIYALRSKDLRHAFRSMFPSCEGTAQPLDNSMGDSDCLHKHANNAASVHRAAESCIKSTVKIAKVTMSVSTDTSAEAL

With `CC(=O)Nc1cccc(C(C)(C)c2cc(O)c3c(c2)OC(C)(C)[C@@H]2CC=C(C)C[C@@H]32)c1`, the Ki was determined as 13.7 nM in test [1] and 13.6 nM in test [2].
For `CC1=CC[C@@H]2[C@@H](C1)c1c(O)cc(C3C4CC5CC(C4)CC3C5)cc1OC2(C)C` (stereo not given in full) the same measures were 34.9 nM and 14 nM.
On to `CC1=CC[C@@H]2[C@@H](C1)c1c(O)cc(CC34CC5CC(CC(C5)C3)C4)cc1OC2(C)C`, for which the inhibition constant (Ki) in test [1] is 29.3 nM; in test [2] it was 26.9 nM.
For the molecule `CC1=CC[C@@H]2[C@@H](C1)c1c(O)cc(C=C3C4CC5CC(C4)CC3C5)cc1OC2(C)C`, the inhibition constant Ki came out at 48.6 nM in test [1] and 8.9 nM in test [2].
Consider `CC1=CC[C@@H]2[C@@H](C1)c1c(O)cc(CC3C4CC5CC(C4)CC3C5)cc1OC2(C)C` (stereo not given in full), for which the values for the Ki in test [1] and in test [2] were 79.7 nM and 76 nM, respectively.
